In patent US20240165097A1, “PHARMACEUTICAL COMPOSITION FOR THE TREATMENT OF ALZHEIMER'S DISEASE OR DEMENTIA” (Heptares Therapeutics Limited, priority 2021, published 2024):
Marks after values point to notes of the source that are not given here.

System: patients with mild-to-moderate AD
Experiment: Example D: safety and tolerability, adjunctive to donepezil 10 mg per day, 4 weeks
Type: in vivo, human
Conditions: for Abdominal pain incidence / Accidental overdose incidence / Decreased lymphocyte count incidence / Decreased white blood cell count incidence / Diarrhoea incidence / Fatigue incidence / Headache incidence / Hyperhidrosis incidence / Lymphopenia incidence / Nausea incidence / Number of TEAEs / SAE incidence / TEAE Severity: Mild / TEAE Severity: Moderate / TEAE Severity: Severe / TEAE incidence / TEAE leading to discontinuation incidence / Treatment-related TEAE incidence / Urinary tract infection incidence / Viral upper respiratory tract infection incidence: randomised dose; for TEAE incidence during maintenance (Days 16-28) / TEAE incidence during titration (Days 1-15): Day 16 dose received
Procedure: The study was an outpatient study conducted across 18 centres in Poland, Czech Republic, Spain, and Slovakia (NCT03456349, registered at clinicaltrials.gov). Patients were assessed for eligibility during a 42-day screening period and randomised equally to either placebo or a HTL0018318 target dose of 5 mg, 15 mg, or 25 mg per day (FIG. 5A). HTL0018318 was titrated to the target dose during a 2-week titration period (FIG. 5B); investigators could maintain or reduce the dose to limit tolerability/safety issues throughout this period. The study was conducted in accordance with the principles of the Declaration of Helsinki, the International Council for Harmonisation good clinical practice guidelines, and according to all appropriate country regulatory requirements. Relevant independent ethics committees provided approval, and all patients (or their caregiver) provided written informed consent.
The primary endpoint of this study was to evaluate the safety and tolerability of HTL0018318. Safety and tolerability were assessed via the incidence and severity of treatment-emergent adverse events (TEAEs), and via evaluation during study visits of vital signs (including blood pressure [BP] and heart rate [HR]), electrocardiogram (ECG) measurements, physical and neurological examinations, laboratory haematology, clinical chemistry and urinalysis.
Safety was the primary endpoint and was assessed at all visits (screening, baseline, Day 1, Day 6±1, Day 11±1, Day 16±1, Day 28±1, and Day 35±2 [follow-up]) based on: spontaneously reported treatment-emergent adverse events (TEAEs); scheduled physical and neurological examinations; vital sign measurements (body temperature, heart rate [HR], systolic and diastolic BP [SBP and DBP]); 12-lead ECG recordings; and clinical laboratory safety panel. The C-SSRS was administered at baseline and on Day 28±1. TEAEs were coded using the Medical Dictionary for Regulatory Activities (MedDRA) Version 20.
All safety analyses used the safety set (SAF; randomised dose). The SAF (randomised dose) included all randomised patients who received at least one dose of the study drug; treatment group assignment was based on the initial randomised dose. All efficacy analyses were considered exploratory and used the full analysis set (FAS). The FAS included all randomised patients with at least one post-baseline efficacy measurement; treatment group assignment was based on the initial randomised dose. All summaries and analyses of PK data used the pharmacokinetic set (PKS). The PKS included all randomised patients with valid PK assessments; treatment group assignment was based on actual dose received.
BP and HR were measured in triplicate, both supine and standing, in the same arm throughout the study. Standing BP and HR were measured after 3 minutes of standing, and supine BP and HR after 5 minutes of lying down. Measurements were repeated if clinically significant or machine/equipment errors occurred. Out-of-range BP or HR measurements were repeated at the investigator's discretion. Any confirmed clinically significant vital sign measurements were recorded as AEs. If the following measurements were obtained, instructions for additional monitoring, or stopping dosing were to be followed: • SBP>170 mmHg; DBP>110 mmHg • SBP or DBP increase >30% from Day 1 pre-dose level.
Statistical evaluation was performed using Statistical analysis software (SAS®, SAS Institute, Cary, NC). Changes from baseline in vital signs were analysed using a mixed model for repeated measures with fixed effects for baseline, treatment, time-point and treatment by time-point interaction. The exploratory PD endpoints were analysed using an analysis of covariance with change from baseline as the dependent variable, and baseline and treatment as covariates. The least square means (LSM) for each dose (and difference from placebo) are presented with the 90% CI, P-value, and ES. […]

[1] = two highest doses (15 and 25 mg)

Structure (SMILES): CCOC(=O)N1C2CCC1CC(N1CCC3(CC1)CNC(=O)C3)C2 (stereo not shown) [HTL0018318, ethyl 3-(3-oxo-2,8-diazaspiro[4.5]dec-8-yl)-8-azabicyclo[3.2.1]octane-8-carboxylate]
- Abdominal pain incidence (5 mg (n = 15)): 1 (6.7) n (%)
- Accidental overdose incidence (5 mg (n = 15)): 1 (6.7) n (%)
- Decreased lymphocyte count incidence (5 mg (n = 15)): 0 n (%)
- Decreased white blood cell count incidence (5 mg (n = 15)): 0 n (%)
- Diarrhoea incidence (5 mg (n = 15)): 1 (6.7) n (%)
- Fatigue incidence (5 mg (n = 15)): 0 n (%)
- Headache incidence (5 mg (n = 15)): 1 (6.7) n (%)
- Hyperhidrosis incidence (5 mg (n = 15)): 0 n (%)
- Lymphopenia incidence (5 mg (n = 15)): 0 n (%)
- Nausea incidence (5 mg (n = 15)): 1 (6.7) n (%)
- Number of TEAEs (5 mg (n = 15)): 18 n
- SAE incidence (5 mg (n = 15)): 0 n (%)
- TEAE Severity: Mild (5 mg (n = 15)): 7 (46.7) n (%)
- TEAE Severity: Moderate (5 mg (n = 15)): 1 (6.7) n (%)
- TEAE Severity: Severe (5 mg (n = 15)): 1 (6.7) n (%)
- TEAE incidence (5 mg (n = 15)): 8 (53.3) n (%)
- TEAE leading to discontinuation incidence (5 mg (n = 15)): 1 (6.7)^d n (%)
- Treatment-related TEAE incidence (5 mg (n = 15)): 4 (26.7) n (%)
- Urinary tract infection incidence (5 mg (n = 15)): 1 (6.7) n (%)
- Viral upper respiratory tract infection incidence (5 mg (n = 15)): 1 (6.7) n (%)
- TEAE incidence during maintenance (Days 16-28) (5 mg (n = 17)): 4 (23.5) n (%)
- TEAE incidence during titration (Days 1-15) (5 mg (n = 17)): 8 (47.1) n (%)
- TEAE incidence during maintenance (Days 16-28) (10 mg (n = 1)): 0 n (%)
- TEAE incidence during titration (Days 1-15) (10 mg (n = 1)): 1 (100) n (%)
- Abdominal pain incidence (15 mg (n = 14)): 0 n (%)
- Accidental overdose incidence (15 mg (n = 14)): 1 (7.1) n (%)
- Decreased lymphocyte count incidence (15 mg (n = 14)): 1 (7.1) n (%)
- Decreased white blood cell count incidence (15 mg (n = 14)): 1 (7.1) n (%)
- Diarrhoea incidence (15 mg (n = 14)): 0 n (%)
- Fatigue incidence (15 mg (n = 14)): 0 n (%)
- Headache incidence (15 mg (n = 14)): 3 (21.4) n (%)
- Hyperhidrosis incidence (15 mg (n = 14)): 2 (14.3) n (%)
- Lymphopenia incidence (15 mg (n = 14)): 1 (7.1) n (%)
- Nausea incidence (15 mg (n = 14)): 1 (7.1) n (%)
- Number of TEAEs (15 mg (n = 14)): 16 n
- SAE incidence (15 mg (n = 14)): 0 n (%)
- TEAE Severity: Mild (15 mg (n = 14)): 8 (57.1) n (%)
- TEAE Severity: Moderate (15 mg (n = 14)): 1 (7.1) n (%)
- TEAE Severity: Severe (15 mg (n = 14)): 0 n (%)
- TEAE incidence (15 mg (n = 14)): 8 (57.1) n (%)
- TEAE leading to discontinuation incidence (15 mg (n = 14)): 1 (7.1)^e n (%)
- Treatment-related TEAE incidence (15 mg (n = 14)): 7 (50.0) n (%)
- Urinary tract infection incidence (15 mg (n = 14)): 0 n (%)
- Viral upper respiratory tract infection incidence (15 mg (n = 14)): 0 n (%)
- TEAE incidence during maintenance (Days 16-28) (15 mg (n = 16)): 2 (12.5) n (%)
- TEAE incidence during titration (Days 1-15) (15 mg (n = 16)): 8 (50.0) n (%)
- TEAE incidence during maintenance (Days 16-28) (25 mg (n = 11)): 2 (18.2) n (%)
- TEAE incidence during titration (Days 1-15) (25 mg (n = 11)): 6 (54.5) n (%)
- Abdominal pain incidence (25 mg (n = 16)): 0 n (%)
- Accidental overdose incidence (25 mg (n = 16)): 0 n (%)
- Decreased lymphocyte count incidence (25 mg (n = 16)): 1 (6.3) n (%)
- Decreased white blood cell count incidence (25 mg (n = 16)): 1 (6.3) n (%)
- Diarrhoea incidence (25 mg (n = 16)): 1 (6.3) n (%)
- Fatigue incidence (25 mg (n = 16)): 2 (12.5) n (%)
- Headache incidence (25 mg (n = 16)): 3 (18.8) n (%)
- Hyperhidrosis incidence (25 mg (n = 16)): 0 n (%)
- Lymphopenia incidence (25 mg (n = 16)): 1 (6.3) n (%)
- Nausea incidence (25 mg (n = 16)): 0 n (%)
- Number of TEAEs (25 mg (n = 16)): 26 n
- SAE incidence (25 mg (n = 16)): 0 n (%)
- TEAE Severity: Mild (25 mg (n = 16)): 9 (56.3) n (%)
- TEAE Severity: Moderate (25 mg (n = 16)): 4 (25.0) n (%)
- TEAE Severity: Severe (25 mg (n = 16)): 0 n (%)
- TEAE incidence (25 mg (n = 16)): 11 (68.8) n (%)
- TEAE leading to discontinuation incidence (25 mg (n = 16)): 0 n (%)
- Treatment-related TEAE incidence (25 mg (n = 16)): 5 (31.3) n (%)
- Urinary tract infection incidence (25 mg (n = 16)): 1 (6.3) n (%)
- Viral upper respiratory tract infection incidence (25 mg (n = 16)): 1 (6.3) n (%)
- serious TEAEs or deaths (5, 15, 25 mg): no serious TEAEs or deaths
- tolerability (5-25 mg adjunctive to donepezil): generally well tolerated
- orthostatic BP or HR (across doses): no significant changes
- physical or neurological examination findings, laboratory abnormalities, risk of suicide (across doses): no clinically significant physical or neurological examination findings, or laboratory abnormalities
- maximum mean elevations in SBP and DBP above placebo (all doses, at Tmax, Days 1, 6, 11): 5-10 mmHg
- patients who discontinued treatment due to TEAEs (one on 5 mg, one on 15 mg): Two
- incidences of cholinergic TEAEs (abdominal pain, diarrhoea, fatigue, nausea) [1]: 0-13%
- maximum incidences of cholinergic TEAEs [1]: 7-13%
